Measured values taken from ChEMBL document CHEMBL5143581, “Design, synthesis and molecular docking studies of imidazole and benzimidazole linked ethionamide derivatives as inhibitors of InhA and antituberculosis agents” (Bioorg Med Chem Lett, 2022).
Values after ≈ are worked out from the molar mass of the structure shown.

What was measured:
Vero = experiment: Cytotoxicity in African green monkey Vero cells assessed as reduction in cell viability; format: toxicity, cell-based; details: chlorocebus sabaeus
[1] = system: Mycobacterium tuberculosis; experiment: Antimycobacterial activity against Mycobacterium tuberculosis H37Rv; format: functional

Structure (SMILES)	Activity (Vero) [µM]	MIC [1] [µM]
Cn1cc(O)nc1NC(=O)c1cc(C(N)=S)ccn1	> 100	0.97 (≈ 0.269 µg/mL)
NC(=S)c1ccnc(C(=O)Nc2nc3ccccc3[nH]2)c1	> 100	12.6 (≈ 3.73 µg/mL)
Cn1c(NC(=O)c2cc(C(N)=S)ccn2)nc2ccccc21	> 100	6.52 (≈ 2.03 µg/mL)
Cc1cn(C)c(NC(=O)c2cc(C(N)=S)ccn2)n1	> 100	13.6 (≈ 3.75 µg/mL)
O=C(O)c1cn(C2CC2)c2cc(N3CCNCC3)c(F)cc2c1=O [CIPROFLOXACIN]	> 100	4.73 (≈ 1.57 µg/mL)
CCc1cc(C(N)=S)ccn1 [ETHIONAMIDE]	> 100	6.63 (≈ 1.1 µg/mL)
Cn1c(NC(=O)c2cc(C(N)=S)ccn2)nc2cc(O)ccc21	> 100	0.27 (≈ 0.0884 µg/mL)
Cc1ccc2c(c1)nc(NC(=O)c1cc(C(N)=S)ccn1)n2C	> 100	3.14 (≈ 1.02 µg/mL)
NNC(=O)c1ccncc1 [ISONIAZID]	> 100	0.36 (≈ 0.0494 µg/mL)
NC(=S)c1ccnc(C(=O)Nc2ncc[nH]2)c1	> 100	23.8 (≈ 5.9 µg/mL)
COc1ccc2c(c1)nc(NC(=O)c1cc(C(N)=S)ccn1)n2C	> 100	0.35 (≈ 0.119 µg/mL)
NC(=O)c1cnccn1 [PYRAZINAMIDE]	> 100	3.12 (≈ 0.384 µg/mL)
CC[C@@H](CO)NCCN[C@@H](CC)CO [ETHAMBUTOL]	> 100	5.01 (≈ 1.02 µg/mL)
Cn1ccnc1NC(=O)c1cc(C(N)=S)ccn1	> 100	15.1 (≈ 3.95 µg/mL)
Cn1cc(C#N)nc1NC(=O)c1cc(C(N)=S)ccn1	> 100	1.24 (≈ 0.355 µg/mL)
